Data from ChEMBL document CHEMBL1151803, “Melanin synthesis inhibitors from Lespedeza cyrtobotrya” (J Nat Prod, 2009).

Tests used:
[1] = Inhibition of melanin synthesis in NHEM after 24 hrs by liquid scintillation; assay type: functional, Homo sapiens
[2] = Cytotoxicity against NHEM cells assessed as cell viability 24 hrs by WST-8 assay; assay type: cell-based; conditions: human

| SMILES | IC50 ([1]; read-out: IC50) [µM] | IC50 [1] | Activity [2] |
| --- | --- | --- | --- |
| OC[C@H]1O[C@@H](Oc2ccc(O)cc2)[C@H](O)[C@@H](O)[C@@H]1O [ARBUTIN] | 2.2 |  |  |
| CC(C)=CCc1c(O)ccc2c1O[C@H]1c3ccc(O)c(CC=C(C)C)c3OC[C@@H]21 [ERYBRAEDIN A] | 2 |  | Non-toxic |
| CC(C)=CCc1cc2c(cc1O)OC[C@H]1c3ccc(O)c(CC=C(C)C)c3O[C@@H]21 [ERYBRAEDIN C] | 5.5 |  | Non-toxic |
| COc1c2c(cc3c1[C@@H]1Oc4ccc5c(c4[C@@H]1CO3)C=CC(C)(C)O5)OC(C)(C)C=C2 [GANGETININ] | 4.6 |  | Non-toxic |
| COc1cc([C@@H]2COc3cc(O)c(CC=C(C)C)cc3C2)c(O)cc1O [LESPECYRTIN D1] | 2.1 |  | Non-toxic |
| CC1(C)C=Cc2cc3c(cc2O1)OC[C@H]1c2ccc4c(c2O[C@@H]31)C=CC(C)(C)O4 [LESPECYRTIN E1] |  |  | Non-toxic |
| CC(C)=CCc1c(O)c2c(c3c1[C@@H]1COc4cc5c(cc4[C@@H]1O3)C=CC(C)(C)O5)C=CC(C)(C)O2 [LESPECYRTIN E2] | 3.7 |  | Non-toxic |
| CC(C)=CCc1cc2c(cc1O)OC[C@H]1c3c4c(c(O)c(CC=C(C)C)c3O[C@@H]21)OC(C)(C)C=C4 [LESPECYRTIN E3] | 0.4 |  | Non-toxic |
| CC(C)=CCc1c(O)c2c(c3c1O[C@H]1c4cc5c(cc4OC[C@@H]31)OC(C)(C)C=C5)C=CC(C)(C)O2 [LESPECYRTIN E4] | 4.5 |  | Non-toxic |
| CC(C)=CCc1c(O)c(C)cc2c1O[C@H]1c3cc4c(cc3OC[C@@H]21)OC(C)(C)C=C4 [LESPECYRTIN E5] | 1.5 |  | Non-toxic |
| CC(C)=CCc1c(O)ccc2c1O[C@H]1c3cc(CCC(C)(C)O)c(O)cc3OC[C@@H]21 [LESPECYRTIN E6] | 3.4 |  | Non-toxic |
| COc1cc2c(cc1O)O[C@H]1c3cc4c(cc3OC[C@@H]21)OC(C)(C)[C@H](O)C4 [LESPECYRTIN E7] | 16 |  | Non-toxic |
| CC(C)=CCc1c(O)c(O)cc2c3c(oc12)-c1ccc(O)cc1OC3 [LESPECYRTIN F1] |  | Not Active | Non-toxic |
| CC(C)=CCc1cc2c(cc1O)OCc1c-2oc2c(CC=C(C)C)c(O)c(O)cc12 [LESPECYRTIN F2] | 15.9 |  | Non-toxic |
| CC(C)=CCC1=C(O)C(Cc2c(-c3cc(CC=C(C)C)c(O)cc3O)oc3c(CC=C(C)C)c(O)c(O)cc23)=C[C@@H]2c3c(c4cc(CC=C(C)C)c(O)cc4oc3=O)O[C@H]12 [LESPECYRTIN H1] | 8.9 |  | Non-toxic |
| CC(C)=CCC1=C(O)C(C(=O)c2c(-c3cc(CC=C(C)C)c(O)cc3O)oc3c(CC=C(C)C)c(O)c(O)cc23)=C[C@@H]2c3c(c4cc(CC=C(C)C)c(O)cc4oc3=O)O[C@H]12 [LESPECYRTIN H2] |  | Not Active | Non-toxic |
| CC(C)=CCC1=C(O)C(C(=O)c2c(-c3cc4c(cc3O)OC(C)(C)C=C4)oc3c(CC=C(C)C)c(O)c(O)cc23)=C[C@@H]2c3c(c4cc(CC=C(C)C)c(O)cc4oc3=O)O[C@H]12 [LESPECYRTIN H3] | 10.1 |  | Non-toxic |
| CC(C)=CCC1=C(O)C(C(=O)c2c(-c3cc(CC=C(C)C)c(O)cc3O)oc3c4c(c(O)cc23)OC(C)(C)C=C4)=C[C@@H]2c3c(c4cc(CC=C(C)C)c(O)cc4oc3=O)O[C@H]12 [LESPECYRTIN H4] | 6.2 |  | Non-toxic |
| CC(C)=CCc1cc2c(cc1O)OC[C@H]1c3cc(C)c(O)c(CC=C(C)C)c3O[C@@H]21 [LESPEFLORIN G4] | 3.2 |  | Non-toxic |
| CC(C)=CCc1cc2c(cc1O)oc(=O)c1c3cc(O)c(O)c(CC=C(C)C)c3oc21 [LESPEFLORIN I2] | 25.7 |  | Non-toxic |
| CC(C)=CCc1cc(-c2oc3c(CC=C(C)C)c(O)c(O)cc3c2C(=O)c2cc3c(c(CC=C(C)C)c2O)O[C@H]2c4cc(CC=C(C)C)c(O)cc4OC[C@@H]32)c(O)cc1O [LESPEFLORIN J3] |  |  | Non-toxic |
| CC(C)=CCCC1(C)C=Cc2c(ccc(C(=O)/C=C/c3ccc(O)cc3)c2O)O1 (stereo not drawn) [LESPEOL] | 2.4 |  | Non-toxic |
| O=C1C[C@@H](c2ccc(O)cc2)Oc2cc(O)cc(O)c21 [NARINGENIN] | 73.5 |  | Non-toxic |
| CC1(C)C=Cc2c(ccc3c2O[C@H]2c4ccc(O)cc4OC[C@@H]32)O1 [PHASEOLIN] | 7.5 |  | Non-toxic |
| CC(C)=CCc1c(O)ccc2c1O[C@H]1c3ccc(O)cc3OC[C@@H]21 [PHASEOLLIDIN] | 8.7 |  | Non-toxic |
| CC(C)=CCC/C(C)=C/Cc1c(O)ccc(C(=O)/C=C/c2ccc(O)cc2)c1O [XANTHOANGELOL] | 0.98 |  | Non-toxic |

The next lines start with results.

| IC50 ([1]; read-out: IC50) [µM] | IC50 [1] | SMILES | Activity [2] |
| --- | --- | --- | --- |
| 2 |  | CC1(C)C=Cc2c(ccc(C(=O)CCc3ccc(O)cc3)c2O)O1 | Non-toxic |
|  | Not Active | Cc1c(O)cc2c(c1O)C(=O)[C@H](O)[C@@H](c1ccc(O)cc1)O2 | Non-toxic |
|  | Not Active | Cc1c(O)cc2occ(-c3ccc(O)cc3)c(=O)c2c1O | Non-toxic |
| 2 |  | CC(C)=CCc1cc([C@@H]2CC(=O)c3ccc(O)cc3O2)ccc1O [ABYSSINONE II] | Non-toxic |
| 18 |  | CC(C)=CCc1cc2c(cc1O)O[C@H](c1ccc(O)cc1)CC2=O [BAVACHIN] | Non-toxic |
| 38.4 |  | COc1c(O)ccc(-c2coc3cc(O)cc(O)c3c2=O)c1OC [BAVAISOFLAVANONE] | Non-toxic |
| 29.2 |  | O=c1c(-c2ccc(O)cc2)coc2cc(O)cc(O)c12 [GENISTEIN] | Non-toxic |
| 103 |  | Oc1ccc(O)cc1 [HYDROQUINONE] |  |
| 1.4 |  | CC(C)=CCc1c(O)ccc(C(=O)/C=C/c2ccc(O)cc2)c1O [ISOBAVACHALCONE] | Non-toxic |
|  | Not Active | CC(C)=CCc1c(O)cc(O)c2c1O[C@H](c1ccc(O)cc1O)CC2=O [LEACHIANONE G] | Non-toxic |
|  | Not Active | CC(C)=CCc1c(O)ccc2c1O[C@H](c1ccc(O)cc1)[C@@H](O)C2=O [LESPECYRTIN A1] | Non-toxic |
| 1.3 |  | C=C(C)C1Cc2c(ccc(C(=O)/C=C/c3ccc(O)cc3)c2O)O1 (stereo not drawn) [LESPECYRTIN B1] | Non-toxic |
| 1 |  | CC1(C)C=Cc2c(O)ccc(C(=O)/C=C/c3ccc(O)cc3)c2O1 [LESPECYRTIN B2] | Non-toxic |
| 9.1 |  | CC(C)(O)C1Cc2c(O)ccc(C(=O)/C=C/c3ccc(O)cc3)c2O1 (stereo not drawn) [LESPECYRTIN B3] | Non-toxic |
| 3 |  | C=C(C)C1Cc2c(ccc(C(=O)CCc3ccc(O)cc3)c2O)O1 (stereo not drawn) [LESPECYRTIN C1] | Non-toxic |
|  | Not Active | CC(C)=CCc1c(O)c(O)cc2c1oc1c3ccc(O)cc3oc(=O)c21 [LESPECYRTIN G1] | Non-toxic |
| 3.2 |  | CC(C)=CCc1cc(/C=C/C(=O)c2ccc(O)cc2O)ccc1O [LICOAGROCHALCONE A] | Non-toxic |
| 14.7 |  | O=C1C[C@@H](c2ccc(O)cc2)Oc2cc(O)ccc21 [LIQUIRTIGENIN] | Non-toxic |
| 9.4 |  | CC(C)=CCc1cc(-c2coc3cc(O)ccc3c2=O)ccc1O [NEOBAVAISOFLAVONE] | Non-toxic |
| 5.4 |  | CC(C)=CCc1c(O)cc2occ(-c3ccc(O)cc3O)c(=O)c2c1O [UNCINANONE A] | Non-toxic |
